From patent US7220876B2, “Arylcycloalkyl derivatives having branched side chains, processes for their preparation and their use as pharmaceuticals” (Sanofi-Aventis Deutschland GmbH, priority 2003, dated 2007)
pEC50: −log10 of the molar value.

Biological target: T1, human PPARalpha (Homo sapiens, UniProt Q07869)
T1 construct: human PPARalpha receptor (amino acids S167-Y468); expressed in transfected cells; host or cells: HEK (human embryo kidney) cells, stably transfected with pcDNA3 carrying the fusion construct
T1 sequence (Q07869 167-468): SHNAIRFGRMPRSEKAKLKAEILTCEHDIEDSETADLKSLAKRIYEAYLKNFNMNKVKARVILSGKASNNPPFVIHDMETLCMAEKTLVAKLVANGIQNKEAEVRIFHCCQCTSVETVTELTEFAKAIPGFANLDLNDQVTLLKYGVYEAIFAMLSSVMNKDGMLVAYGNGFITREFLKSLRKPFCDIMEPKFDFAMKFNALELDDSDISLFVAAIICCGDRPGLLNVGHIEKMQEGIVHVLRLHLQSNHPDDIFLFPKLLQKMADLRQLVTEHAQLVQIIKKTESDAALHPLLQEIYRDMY
Assay: Cellular PPARalpha assay (stably transfected HEK luciferase reporter cell line)
Assay type: cell-based
Settings: GR-GAL4-humanPPARalpha-LBD, luciferase readout
Experimental: The potency of substances which bind to human PPARalpha and activate in an agonistic manner is analyzed using a stably transfected HEK cell line (HEK=human embryo kidney) which is referred to here as PPARalpha reporter cell line. It contains two genetic elements, a luciferase reporter element (pdeltaM-GAL4-Luc-Zeo) and a PPARalpha fusion protein (GR-GAL4-humanPPARalpha-LBD) which mediates expression of the luciferase reporter element depending on a PPARalpha ligand. The stably and constitutively expressed fusion protein GR-GAL4-humanPPARalpha-LBD binds in the cell nucleus of the PPARalpha reporter cell line via the GAL4 protein portion to the GAL4 DNA binding motifs 5′-upstream of the luciferase reporter element which is integrated in the genome of the cell line. There is only little expression of the luciferase reporter gene without addition of a PPARalpha ligand if fatty acid-depleted fetal calf serum (cs-FCS) is used in the assay. PPARalpha ligands bind and activate the PPARalpha fusion protein and thereby bring about expression of the luciferase reporter gene. The luciferase which is formed can be detected by means of chemiluminescence via an appropriate substrate.
The PPARalpha reporter cell line was prepared in 2 stages. Firstly, the luciferase reporter element was constructed and stably transfected into HEK cells. […] The minimal MMTV promoter section contains a CCAAT box and a TATA element in order to enable efficient transcription by RNA polymerase II. […] Then the complete Photinus pyralis gene (Genbank Accession # M15077) was cloned in 3′-downstream of the GAL4-MMTV element. After sequencing, the luceriferase reporter element consisting of five GAL4 binding sites, MMTV promoter and luciferase gene was recloned into a plasmid which confers zeocin resistance in order to obtain the plasmid pdeltaM-GAL4-Luc-Zeo. This vector was transfected into HEK cells in accordance with the statements in Ausubel, F. M. et al. (Current protocols in molecular biology, Vol. 1-3, John Wiley & Sons, Inc., 1995). […] In a second step, the PPARalpha fusion protein (GR-GAL4-humanPPARalpha-LBD) was introduced into the stable cell clone described. […] The cDNA of the ligand-binding domain of the human PPARalpha receptor (amino acids S167-Y468; Genbank Accession # S74349) was cloned in at the 3′-end of this GR-GAL4 construct. The fusion construct prepared in this way (GR-GAL4-humanPPARalpha-LBD) was recloned into the plasmid pcDNA3 (from Invitrogen) in order to enable constitutive expression therein by the cytomegalovirus promoter. This plasmid was linearized with a restriction endonuclease and stably transfected into the previously described cell clone containing the luciferase reporter element. The finished PPARalpha reporter cell line which contains a luciferase reporter element and constitutively expresses the PPARalpha fusion protein (GR-GAL4-human PPARalpha-LBD) was isolated by selection with zeocin (0.5 mg/ml) and G418 (0.5 mg/ml).
The activity of PPARalpha agonists is determined in a 3-day assay which is described below: […]

| Structure (SMILES) | pEC50 |
| --- | --- |
| Cc1cccc(CO[C@@H]2CCC[C@H](OCCN(C(=O)Nc3cccc(F)c3)C3CC3)C2)c1C(=O)O (racemic) [XLV, 2-(cis-3-{2-[1-cyclopropyl-3-(3-fluorophenyl)-ureido]ethoxy}cyclohexyloxymethyl)-6-methylbenzoic acid] | 7.05 |
| Cc1ccccc1NC(=O)N(CCO[C@H]1CCC[C@@H](OCc2cccc(C)c2C(=O)O)C1)C1CCCCC1 (racemic) [XV, 2-{cis-3-[2-(1-cyclohexyl-3-o-tolylureido)ethoxy]cyclohexyloxymethyl}-6-methylbenzoic acid] | 7.51 |
| Cc1cccc(CO[C@@H]2CCC[C@H](OCCN(C(=O)Nc3cccc(F)c3)C3CCCCC3)C2)c1C(=O)O (racemic) [XVI, 2-(cis-3-{2-[1-cyclohexyl-3-(3-fluorophenyl)-ureido]ethoxy}cyclohexyloxymethyl)-6-methylbenzoic acid] | 7.42 |
| Cc1cccc(CO[C@@H]2CCC[C@H](OCCN(CCCc3ccccc3)C(=O)Nc3ccccc3)C2)c1C(=O)O [Example I, 2-{(1R,3S)-3-[2-(1-[3-phenylpropyl]-3-phenylureido)ethoxy]cyclohexyloxymethyl}-6-methylbenzoic acid] | 8.72 |
| Cc1cccc(CO[C@@H]2CCC[C@H](OCCN(CCc3ccc(Cl)cc3)C(=O)Nc3ccccc3)C2)c1C(=O)O [II, 2-{(1R,3S)-3-[2-(1-[2-(4-chlorophenyl)ethyl]-3-phenylureido)ethoxy]cyclohexyloxymethyl}-6-methylbenzoic acid] | 8.31 |
| Cc1cccc(CO[C@@H]2CCC[C@H](OCCN(CC(C)(C)C)C(=O)Nc3ccccc3)C2)c1C(=O)O [VIII, 2-((1R,3S)-3-{2-[1-(2,2-dimethylpropyl)-3-phenylureido]ethoxy}cyclohexyloxymethyl)-6-methylbenzoic acid] | 7.02 |

Results, then the compound that gave them:

| pEC50 | Structure (SMILES) |
| --- | --- |
| 8.48 | CCCCNC(=O)N(CCOC1CCCC(OCc2cccc(C)c2C(=O)O)C1)C(C)CC(C)C (mixture of isomers) [XXII, 2-(cis-3-{2-[3-butyl-1-((1S)/(1R),3-dimethylbutyl)-ureido]ethoxy}cyclohexyloxymethyl)-6-methylbenzoic acid] |
| 7.08 | CCCCNC(=O)N(CCO[C@H]1CCC[C@@H](OCc2cccc(C)c2C(=O)O)C1)C1CCCCC1 (racemic) [XVII, 2-{cis-3-[2-(3-butyl-1-cyclohexylureido)ethoxy]cyclohexyloxymethyl}-6-methylbenzoic acid] |
| 9.77 | CCCCCCCN(CCO[C@H]1CCC[C@@H](OCc2cccc(C)c2C(=O)O)C1)C(=O)NCCCC (racemic) [XXXIX, 2-{cis-3-[2-(3-butyl-1-heptylureido)ethoxy]cyclohexyloxy-methyl}-6-methylbenzoic acid] |
| 9.89 | CCCCCCCN(CCO[C@H]1CCC[C@@H](OCc2cccc(C)c2C(=O)O)C1)C(=O)Nc1ccccc1 [IX, 2-{(1R,3S)-3-[2-(1-heptyl-3-phenylureido)ethoxy]cyclohexyloxymethyl}-6-methylbenzoic acid] |
| 8.77 | CCCCCN(CCO[C@H]1CCC[C@@H](OCc2cccc(C)c2C(=O)O)C1)C(=O)Nc1ccccc1 [VII, 2-{(1 R,3S)-3-[2-(1-pentyl-3-phenylureido)ethoxy]cyclohexyloxymethyl}-6-methylbenzoic acid] |
| 10.15 | CCCCNC(=O)N(CCO[C@H]1CCC[C@@H](OCc2cccc(C)c2C(=O)O)C1)Cc1ccc(C)cc1 [XII, 2-((1R,3S)-3-{2-[3-butyl-1-(4-methylbenzyl)ureido]ethoxy}-cyclohexyloxymethyl)-6-methylbenzoic acid] |
